In EP4667463A1, “DOMIDE MOLECULAR GLUE DERIVATIVE AND USE THEREOF” (CSPC Megalith Biopharmaceutical Co., Ltd., priority 2023, dated 2024):
pIC50: −log10 of the molar value. Where two headings read alike, the source gives them in different places. One block for each compound: values may come before it.

Tests used:
[1] = system: HL-60; test: In vitro anti-tumor activity of molecular glue compounds, CellTiter-Lumi cell viability assay; assay type: cell-based; conditions: Homo sapiens; HL-60 cells, 96 h incubation; read-out: Cell inhibitory activity (IC50 values) HL-60
Description: (§1) Different tumor cells were all commercially available and used for evaluating the anti-tumor inhibitory activity of the compounds of the present disclosure. Various tumor cells were cultured until the cell confluency reached 80%-90%, with cell viability above 90% as determined by trypan blue exclusion. Then, the cells were plated. Specifically, after cell density optimization, 100 µL of each of the cell suspensions of HL-60 and SK-BR-3 cells (cell density: 3000 cells/well), Romas cells (cell density: 6000 cells/well), NCI-H929 cells (cell density: 4000 cells/well), and NCI-H82 cells (cell density: 5000 cells/well) was plated in a BeyoGold™ ultra-low attachment black clear-bottom 96-well plate (Cat. No.: FULA965-24pcs), and the plate was incubated overnight. The next day, after the adherent cells were adhered to the wall and suspension cells requiring aggregation were aggregated, 50 µL of culture medium was aspirated from each well of the 96-well plate. Then, the compounds diluted with the corresponding culture media were added. Specifically, the compounds were serially diluted at a 5-fold gradient starting from the highest concentration of 1 µM, with a final DMSO concentration of 1%o, and the test compounds were then added to the cell culture plate. The plate was incubated in an incubator at 37 °C with 5% carbon dioxide for 96 h. Before measurement, the CellTiter-Lumi™ luminescent cell viability assay reagent was equilibrated to room temperature in the dark. Then, 50 µL of the CellTiter-Lumi™ (Cat. No.: C0065XL) cell viability assay reagent was added to each well of the 96-well plate. The plate was shaken in the dark on a shaker at 300 rpm for 10 min to ensure complete cell lysis. After the reaction was completed, the luminescence was measured on a multi-mode microplate reader. The cell inhibition rate was determined according to the luminescence. Then, a cell viability curve was generated by Graphpad Prism 8.0, and the IC50 values were calculated. The compounds of the present disclosure were tested for activity by the method described above. Table 1. Cell inhibitory activity (IC50 values)

[2] = system: NCI-H82; test: as above; assay type: cell-based; conditions: Homo sapiens; NCI-H82 cells, 96 h incubation; read-out: Cell inhibitory activity (IC50 values) NCI-H82
Description: as §1

[3] = system: NCI-H929; test: as above; assay type: cell-based; conditions: Homo sapiens; NCI-H929 cells, 96 h incubation; read-out: Cell inhibitory activity (IC50 values) NCI-H929
Description: as §1

[4] = system: Romas; test: as above; assay type: cell-based; conditions: Romas cells, 96 h incubation; read-out: Cell inhibitory activity (IC50 values) Romas
Description: as §1

[5] = system: SK-BR-3; test: as above; assay type: cell-based; conditions: Homo sapiens, SK-BR-3 cells
Description: as §1

[6] = in vitro; conditions: human, microsomes
Description: (§3) The final concentration of the substrate in the incubation system was 1 µM, and the incubation time was 60 min. Sampling was performed at 0 min, 5 min, 15 min, 30 min, and 60 min. The reaction was stopped with glacial acetonitrile containing an internal standard (testosterone-d3 at a concentration of 10 ng/mL). Verapamil was used as a positive control. […] The natural logarithm of the remaining percentage was subjected to linear fitting with time to determine the elimination rate constant (k).

[7] = in vitro; conditions: monkey, microsomes
Description: as §3

[8] = in vitro; conditions: dog, microsomes
Description: as §3

[9] = in vitro; conditions: rat, microsomes
Description: as §3

[10] = in vitro; conditions: mouse, microsomes
Description: as §3

[11] = Metabolic stability in liver microsomes; conditions: Human liver microsomes, after 60 min of incubation
Description: as §3

[12] = Metabolic stability in liver microsomes; conditions: Monkey liver microsomes, after 60 min of incubation
Description: as §3

[13] = Metabolic stability in liver microsomes; conditions: Dog liver microsomes, after 60 min of incubation
Description: as §3

[14] = Metabolic stability in liver microsomes; conditions: Rat liver microsomes, after 60 min of incubation
Description: as §3

[15] = Metabolic stability in liver microsomes; conditions: Mouse liver microsomes, after 60 min of incubation
[16] = molecular target: T1, GSPT1 protein (Homo sapiens, UniProt P15170+Q96SW2); test: GSPT1 protein degradation, Nano-Glo HiBiT assay in HiBiT-GSPT1 HEK293T cells; assay type: cell-based; conditions: 24 h
T1 construct: An HiBiT protein tag was added to the N-terminus of the endogenous GSPT1 protein of HEK293T cells by CRISPR gene editing technology; endogenous in cells; host or cells: HEK293T (CRISPR knock-in HiBiT-GSPT1 cell strain)
Description: This experiment was performed to evaluate the targeting property of the compounds. An HiBiT protein tag was added to the N-terminus of the endogenous GSPT1 protein of HEK293T cells by CRISPR gene editing technology, so as to construct a HiBiT-GSPT1 HEK293T stably transfected cell strain. HiBiT-GSPT1 HEK293T cells were cultured in DMEM containing 10% FBS and 1% PenStrep. When the cell confluency reached 80%-90%, the cells were digested with trypsin, pipetted into single cells, and resuspended in a corresponding culture medium to form a cell suspension. The cells were counted using Cell Countess (NanoEnTek, #Cat. EVE-MC2), and the cell viability was determined by trypan blue exclusion to ensure that the cell viability was above 90%. The cells were plated in a 384-well plate (Corning, #Cat. 3764) at 10,000 cells/40 µL of cell suspension per well, and cultured in an incubator at 37 °C with 5% CO2 overnight. The next day, the test compounds were added to the 384-well plate under conditions of 30 µM highest concentration, 5-fold serial dilution, and 1‰ DMSO. The plate was incubated in the incubator at 37 °C with 5% CO2 for another 24 h. Before measurement, the Nano-Glo HiBiT reagent was equilibrated to room temperature, the LgBiT protein was diluted with the Nano-Glo HiBiT Lytic buffer according to a dilution ratio of 1:100, and the Nano-Glo@HiBiT Lytic substrate was diluted to an appropriate volume according to a ratio of 1:50. After the cell culture plate was equilibrated at room temperature for 10 min, 40 µL of Nano-Glo HiBiT Lytic assay reagent was added to each well. The plate was shaken on a microplate shaker at a rotation speed of 300 rpm for 3 min in the dark. After the reaction was completed, the luminescencevalues were read on BMG PHERASTAR FS (BMG LRBTECH, Cat. No.: PHERAstar FSX), and the DC50 values were calculated using GraphPad Prism 8.0. Table 2. GSPT1 protein degradation

[17] = system: AsPc-1; test: Activity in cell strains with high expression of efflux pump proteins, cell viability assay; assay type: cell-based; conditions: Homo sapiens, ASPC1, AsPc-1 cells, 96 h
Description: (§2) Three types of cells used for evaluating the activity of the compounds of the present disclosure against a cell strain with high expression of efflux pump proteins were all purchased from Nanjing Cobioer Biosciences Co., Ltd., and all the cells were derived from ATCC (American Type Culture Collection). Various tumor cells were cultured until the cell confluency reached 80%-90%, with cell viability above 90% as determined by trypan blue exclusion. Then, the cells were plated. Specifically, after cell density optimization, 75 µL of each of three cell suspensions of SNU-5, HCT-15, and AsPc-1 cells (3000 cells/well) was inoculated into a BeyoGold™ ultra-low attachment black clear-bottom 96-well plate (Cat. No.: FULA965-24pcs), and the plate was incubated overnight in a cell incubator at 37 °C with carbon dioxide. The next day, after the cells adhered to the wall, 75 µL of the compounds diluted with the corresponding culture media were added. Specifically, the compounds were serially diluted at a 5-fold gradient starting from the highest concentration of 1 µM, with a final DMSO concentration of 1‰, and the test compounds were then added to the cell culture plate. The plate was incubated in an incubator at 37 °C with 5% carbon dioxide for 96 h. Before measurement, the CellTiter-Lumi™ luminescent cell viability assay reagent was equilibrated to room temperature in the dark. Then, 50 µL of the CellTiter-Lumi™ (Cat. No.: C0065XL) cell viability assay reagent was added to each well of the 96-well plate. The plate was shaken in the dark on a shaker at 300 rpm for 10 min to ensure complete cell lysis. After the reaction was completed, the chemiluminescence intensity was measured on a multi-mode microplate reader. The cell viability inhibition rate was determined according to the chemiluminescence intensity. Then, a cell viability curve was generated by Graphpad Prism 8.0, and the IC50 values were calculated. Table 3. Activity of the compounds of the present disclosure in cell strains with high expression of efflux pump proteins (IC50 value)

[18] = system: HCT-15; test: as above; assay type: cell-based; conditions: Homo sapiens, HCT-15 cells, 96 h
Description: as §2

[19] = system: SNU-5; test: as above; assay type: cell-based; conditions: Homo sapiens, SNU-5 cells, 96 h
Description: as §2

[20] = 96 h incubation, read-out: Cell inhibitory activity (IC50 values) SK-BR-3

T1 sequence (P15170 whole entry): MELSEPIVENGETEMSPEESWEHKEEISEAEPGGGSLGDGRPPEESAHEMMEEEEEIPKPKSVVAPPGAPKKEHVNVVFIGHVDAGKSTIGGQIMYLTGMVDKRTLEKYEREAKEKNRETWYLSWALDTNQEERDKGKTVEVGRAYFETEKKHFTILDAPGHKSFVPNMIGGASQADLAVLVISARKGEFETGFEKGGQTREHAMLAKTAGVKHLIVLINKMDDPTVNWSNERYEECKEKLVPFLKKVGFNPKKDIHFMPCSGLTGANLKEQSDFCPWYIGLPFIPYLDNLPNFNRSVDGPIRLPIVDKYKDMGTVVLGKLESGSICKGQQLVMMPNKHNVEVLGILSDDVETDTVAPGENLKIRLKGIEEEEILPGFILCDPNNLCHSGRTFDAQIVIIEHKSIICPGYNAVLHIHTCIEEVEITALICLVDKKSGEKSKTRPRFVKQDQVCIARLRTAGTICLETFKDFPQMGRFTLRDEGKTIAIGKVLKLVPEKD
T1 sequence (Q96SW2 whole entry): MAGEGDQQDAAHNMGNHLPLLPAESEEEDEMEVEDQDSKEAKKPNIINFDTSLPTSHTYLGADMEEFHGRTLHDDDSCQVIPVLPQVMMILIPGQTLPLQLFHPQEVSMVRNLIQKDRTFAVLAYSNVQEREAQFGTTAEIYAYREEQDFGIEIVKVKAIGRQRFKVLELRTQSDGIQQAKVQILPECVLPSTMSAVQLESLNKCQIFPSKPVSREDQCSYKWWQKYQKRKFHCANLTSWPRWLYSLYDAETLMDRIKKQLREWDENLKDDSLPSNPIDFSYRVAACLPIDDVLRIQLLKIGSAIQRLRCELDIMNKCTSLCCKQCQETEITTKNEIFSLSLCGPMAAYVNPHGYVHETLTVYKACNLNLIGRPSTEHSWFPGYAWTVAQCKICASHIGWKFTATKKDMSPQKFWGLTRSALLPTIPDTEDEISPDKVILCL
T1 sequence (Q16531 whole entry partner): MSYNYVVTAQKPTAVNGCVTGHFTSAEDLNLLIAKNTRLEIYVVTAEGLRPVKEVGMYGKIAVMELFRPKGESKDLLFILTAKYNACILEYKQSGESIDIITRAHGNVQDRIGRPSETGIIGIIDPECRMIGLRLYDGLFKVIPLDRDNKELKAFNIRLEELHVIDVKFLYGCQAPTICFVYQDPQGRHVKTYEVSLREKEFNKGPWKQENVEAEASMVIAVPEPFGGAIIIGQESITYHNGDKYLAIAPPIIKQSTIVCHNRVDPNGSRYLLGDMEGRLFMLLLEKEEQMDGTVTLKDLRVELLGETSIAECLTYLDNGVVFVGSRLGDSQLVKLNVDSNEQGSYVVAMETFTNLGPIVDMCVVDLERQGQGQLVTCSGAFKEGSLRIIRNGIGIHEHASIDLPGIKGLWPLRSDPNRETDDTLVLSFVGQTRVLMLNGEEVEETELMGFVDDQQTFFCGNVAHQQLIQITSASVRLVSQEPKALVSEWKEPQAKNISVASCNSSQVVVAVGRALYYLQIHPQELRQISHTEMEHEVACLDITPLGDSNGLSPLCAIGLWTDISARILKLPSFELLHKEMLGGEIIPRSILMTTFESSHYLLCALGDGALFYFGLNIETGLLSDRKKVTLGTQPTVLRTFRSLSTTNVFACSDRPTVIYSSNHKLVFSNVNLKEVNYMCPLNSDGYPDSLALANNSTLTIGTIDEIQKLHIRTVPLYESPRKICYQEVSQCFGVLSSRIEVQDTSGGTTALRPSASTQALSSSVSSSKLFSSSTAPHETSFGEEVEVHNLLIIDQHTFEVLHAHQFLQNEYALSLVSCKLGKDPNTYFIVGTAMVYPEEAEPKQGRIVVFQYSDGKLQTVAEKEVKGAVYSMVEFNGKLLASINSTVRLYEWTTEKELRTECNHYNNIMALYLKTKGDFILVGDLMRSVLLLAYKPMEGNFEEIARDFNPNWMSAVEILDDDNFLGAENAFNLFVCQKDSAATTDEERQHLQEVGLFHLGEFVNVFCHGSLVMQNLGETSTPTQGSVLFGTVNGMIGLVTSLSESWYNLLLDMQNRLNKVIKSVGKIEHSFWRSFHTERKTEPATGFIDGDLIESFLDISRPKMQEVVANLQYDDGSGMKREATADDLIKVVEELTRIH

pIC50 [1]: > 8.00
pIC50 [2]: 7.30 to 8.00
pIC50 [3]: > 8.00
pIC50 [4]: > 8.00
pIC50 [5, 20]: > 8.00
CLint scaled at 1 µM [6]: 7.03 mL/min/kg
CLint scaled at 1 h, 1 µM [6]: 5.27 mL/min/kg
half-life at 1 µM [6]: 4.12 h
CLint scaled at 1 µM [7]: 13.7 mL/min/kg
CLint scaled at 1 h, 1 µM [7]: 10.5 mL/min/kg
half-life at 1 µM [7]: 2.47 h
CLint scaled at 1 µM [8]: 11.8 mL/min/kg
CLint scaled at 1 h, 1 µM [8]: 8.55 mL/min/kg
half-life at 1 µM [8]: 4.88 h
CLint scaled at 1 µM [9]: 19.8 mL/min/kg
CLint scaled at 1 h, 1 µM [9]: 14.6 mL/min/kg
half-life at 1 µM [9]: 2.08 h
CLint scaled at 1 µM [10]: 32.2 mL/min/kg
CLint scaled at 1 h, 1 µM [10]: 23.7 mL/min/kg
half-life at 1 µM [10]: 2.9 h
Parent drug remaining % [11]: 83.4%
Parent drug remaining % [12]: 79.4%
Parent drug remaining % [13]: 86.4%
Parent drug remaining % [14]: 71.0%
Parent drug remaining % [15]: 79.8%
Structure (SMILES): O=C1CCC(N2Cc3cc(CNC(=O)Nc4ccc(CCCOC5CCNCC5)c(Cl)c4)ccc3C2=O)C(=O)N1 (stereo not shown) [Compound B61]

Structure (SMILES): CC(C)(C)OC(=O)N1CCCC(OCCCc2ccc(NC(=O)NCc3ccc4c(c3)CN(C3CCC(=O)NC3=O)C4=O)cc2Cl)C1 (stereo not shown) [Compound A19]
pIC50 ([5]; read-out: SK-BR-3 IC50): 8.91
DC50 [16]: 16 nM

pIC50 [1]: 7.30 to 8.00
pIC50 [2]: 7.00 to 7.30
pIC50 [3]: 7.00 to 7.30
pIC50 [4]: < 7.00
pIC50 [5, 20]: < 7.00
pIC50 ([5]; read-out: SK-BR-3 IC50): 7.49
DC50 [16]: 274 nM
pIC50 [17]: 6.70 to 7.30
pIC50 [18]: < 6.00
pIC50 [19]: < 6.00
Structure (SMILES): CNCCOCCc1ccc(NC(=O)NCc2ccc3c(c2)CN(C2CCC(=O)NC2=O)C3=O)cc1Cl (stereo not shown) [Smol006, reference compound]
